Like-named read-outs stand apart in the source and are kept apart here.
Tests used:
[1] = tested on: abdominal cramps induced in the rat by acetic acid; assay: Cramps induced with acetic acid (KOSTER test), analgesic activity, per os; format: in vivo, rat (male Wistar); details: po, read-out: Acetic Acid Writhing, % inhibition (% decrease in the number of cramps compared with the control animals)
Experimental: 1) Cramps induced with acetic acid
Male Wistar rats randomly divided into groups of 5 (weight 150±10 g) receive the test products per os 30 minutes before the intraperitoneal injection of 1 cm^3 of 1% acetic acid.
The number of cramps is counted during the 25 minutes which follow the injection.
(§1) The percentage activity was evaluated for each compound (% decrease in the number of cramps in the treated animals compared with the control animals).

[2] = tested on: cramps induced in the mouse by phenylbenzoquinone; assay: Cramps induced with phenylbenzoquinone (SIEGMUND test), analgesic activity, per os; format: in vivo, mouse (male CD-1); details: po, read-out: PBO Whrithing, % inhibition (% decrease in the number of cramps compared with the control animals)
Experimental: 2) Cramps induced with phenylbenzoquinone
Male CD-1 mice randomly divided into groups of 5 receive the test products per os 30 minutes before the intraperitoneal injection of 0.25 cm3 of a 0.01% solution of phenylbenzoquinone in a 95:5 mixture of water and ethanol.
The number of cramps is counted between the 5th and the 15th minute after the injection of phenylbenzoquinone.
as §1

[3] = rat, 50 mg/kg per os, 30 minutes before acetic acid, 25 minutes count
[4] = mouse, 50 mg/kg per os, 30 minutes before phenylbenzoquinone, count 5th to 15th minute

## Cn1c(=O)oc2cc(C(=O)CN3CCN(c4ccccc4)CC3)cnc21 [Example 22, 3-METHYL-6-[2-(4-PHENYLPIPERAZIN-1-YL)ACETYL]OXAZOLO[4,5-b]PYRIDIN-2(3H)-ONE]
[1]; [3]
  inhibition at 50 mg/kg: 97%
[2]; [4]
  inhibition at 50 mg/kg: 53%

## CN1C(=O)Cc2cc(CN3CCN(c4ccccc4)CC3)cnc21 [Example 46, 1,3-DIHYDRO-5-(4-PHENYLPIPERAZIN-1-YLMETHYL)-1-METHYL-2H-PYRROLO[2,3-b]PYRIDIN-2-ONE]
[2]; [4]
  inhibition at 50 mg/kg: 67%

## CC(=O)c1cnc2c(c1)CC(=O)N2C [Example 13, 1,3-DIHYDRO-1-METHYL-5-ACETYL-2H-PYRROLO[2,3-b]PYRIDIN-2-ONE]
[1]; [3]
  inhibition at 50 mg/kg: 96%

## O=C(c1ccccc1)c1cnc2[nH]c(=O)oc2c1 [Example 6, 6-BENZOYLOXAZOLO[4,5-b]PYRIDIN-2(3H)-ONE]
[1]; [3]
  inhibition at 50 mg/kg: 88%

## Cn1c(=O)oc2cc(C(=O)c3ccccc3)cnc21 [Example 5, 3-METHYL-6-BENZOYLOXAZOLO[4,5-b]PYRIDIN-2(3-ONE]
[1]; [3]
  inhibition at 50 mg/kg: 85%
[2]; [4]
  inhibition at 50 mg/kg: 85%

## CN1C(=O)Cc2cc(C(=O)CN3CCN(c4ccccc4)CC3)cnc21 [Example 47, 1,3-DIHYDRO-5-[2-(4-PHENYLPIPERAZIN-1-YL)ACETYL)-1-METHYL-2H-PYRROLO[2,3-b]PYRIDIN-2-ONE]
[2]; [4]
  inhibition at 50 mg/kg: 90%

## CC(=O)Oc1ccccc1C(=O)O [Aspirin, reference compound]
[1]; Rattus norvegicus
  inhibition at 50 mg/kg: 56%
[2]; Mus musculus
  inhibition at 50 mg/kg: 62%

## Cn1c(=O)oc2cc(CCCN3CCN(c4ccccc4)CC3)cnc21 [Example 20, 3-METHYL-6-[3-(4-PHENYLPIPERAZIN-1-YL)PROP-1-YL]OXAZOLO[4,5-b]PYRIDIN-2(3H)-ONE]
[2]; [4]
  inhibition at 50 mg/kg: 100%

## Cn1c(=O)oc2cc(CN3CCN(c4ccccc4)CC3)cnc21 [Example 16, 3-METHYL-6-[(4-PHENYLPIPERAZIN-1-YL)METHYL]OXAZOLO[4,5-b]PYRIDIN-2(3H)-ONE]
[1]; [3]
  inhibition at 50 mg/kg: 98%
[2]; [4]
  inhibition at 50 mg/kg: 57%

## Cn1c(=O)oc2cc(C(O)CN3CCN(c4ccccc4)CC3)cnc21 (stereo not drawn) [Example 24, 3-METHYL-6-[2-(4-PHENYLPIPERAZIN-1-YL)-1-HYDROXYETHYL]OXAZOLO[4,5-b]PYRIDIN-2(3H)-ONE]
[1]; [3]
  inhibition at 50 mg/kg: 86%
[2]; [4]
  inhibition at 50 mg/kg: 97%
